Source: ChEMBL document CHEMBL3885861, “Open TG-GATES”

Organism: Rattus norvegicus
Experiment: Open TG-GATES - Regimen: Single
Assay type: toxicity, organism-based, Sprague-Dawley
Set-up: regimen Single, gender Male, age 6 weeks
Settings: in vivo, sc, route subcutaneous injection; for APTT / Bas / Eos / Fbg / Hb / Ht / Lym / MCH / MCHC / MCV / Mono / Neu / PT / Plat / RBC / Ret / WBC: tissue Blood; for KIDNEY_L / KIDNEY_R / KIDNEY_TOTAL: tissue Kidney; for LIVER: tissue Liver; for A/G / ALP / ALT / AST / BUN / CRE / Ca / Cl / DBIL / GLC / IP / K / LDH / Na / PL / RALB / TBIL / TC / TG / TP / gamma-GTP: tissue Plasma
[1] = 0.2 mg/kg, 3 h, dose 200 ug/Kg, dose level Middle
[2] = 0.2 mg/kg, 6 h, dose 200 ug/Kg, dose level Middle
[3] = 0.2 mg/kg, 9 h, dose 200 ug/Kg, dose level Middle
[4] = 0.2 mg/kg, 24 h, dose 200 ug/Kg, dose level Middle
[5] = 2 mg/kg, 3 h, dose 2000 ug/Kg, dose level High
[6] = 2 mg/kg, 6 h, dose 2000 ug/Kg, dose level High
[7] = 2 mg/kg, 9 h, dose 2000 ug/Kg, dose level High
[8] = 2 mg/kg, 24 h, dose 2000 ug/Kg, dose level High

## CC(=O)O.N=C(N)NCCC[C@@H](NC(=O)[C@@H]1CCCN1C(=O)[C@@H]1CSSCCC(=O)N[C@@H](Cc2ccc(O)cc2)C(=O)N[C@@H](Cc2ccccc2)C(=O)N[C@@H](CCC(N)=O)C(=O)N[C@@H](CC(N)=O)C(=O)N1)C(=O)NCC(N)=O [DESMOPRESSIN ACETATE]
[1]
  TERMINAL_BW: 206.2 g
  APTT: 17.6 s
  Bas: 0%
  Eos: 1%
  Fbg: 256.3 mg/dL
  Hb: 12.8 g/dL
  Ht: 39.6%
  Lym: 71.8%
  MCH: 21.1 pg
  MCHC: 32.3%
  MCV: 65.1 fL
  Mono: 7.6%
  Neu: 19.6%
  PT: 12.2 s
  Plat: 112.4 x10_4/uL
  RBC: 609.4 x10_4/ul
  Ret: 8.8%
  WBC: 77 x10_2/uL
  KIDNEY_L: 0.9 g
  KIDNEY_R: 1 g
  KIDNEY_TOTAL: 1.9 g
  LIVER: 9.9 g
  A/G: 2
  ALP: 1405.8 IU/L
  ALT: 44.4 IU/L
  AST: 81.2 IU/L
  BUN: 23.8 mg/dL
  CRE: 0.4 mg/dL
  Ca: 11.8 mg/dL
  Cl: 101 meq/L
  DBIL: 0.012 mg/dL
  GLC: 205.6 mg/dL
  IP: 10.8 mg/dL
  K: 4.6 meq/L
  LDH: 272.6 IU/L
  Na: 134.6 meq/L
  PL: 145.8 mg/dL
  RALB: 3.8 g/dL
  TBIL: 0.05 mg/dL
  TC: 77 mg/dL
  TG: 99.8 mg/dL
  TP: 5.7 g/dL
  gamma-GTP: 0.8 IU/L
[2]
  TERMINAL_BW: 205.6 g
  APTT: 18.4 s
  Bas: 0%
  Eos: 1.6%
  Fbg: 244.6 mg/dL
  Hb: 13 g/dL
  Ht: 39.7%
  Lym: 71.8%
  MCH: 21.4 pg
  MCHC: 32.8%
  MCV: 65.3 fL
  Mono: 8.8%
  Neu: 18%
  PT: 12.5 s
  Plat: 124.8 x10_4/uL
  RBC: 609.4 x10_4/ul
  Ret: 8.7%
  WBC: 102.8 x10_2/uL
  KIDNEY_L: 1 g
  KIDNEY_R: 1 g
  KIDNEY_TOTAL: 2 g
  LIVER: 9.6 g
  A/G: 2.1
  ALP: 1316 IU/L
  ALT: 34.8 IU/L
  AST: 63.2 IU/L
  BUN: 27.4 mg/dL
  CRE: 0.3 mg/dL
  Ca: 10.9 mg/dL
  Cl: 101 meq/L
  DBIL: 0.016 mg/dL
  GLC: 200.6 mg/dL
  IP: 10.3 mg/dL
  K: 4.6 meq/L
  LDH: 127.6 IU/L
  Na: 135.4 meq/L
  PL: 155.6 mg/dL
  RALB: 3.7 g/dL
  TBIL: 0.064 mg/dL
  TC: 84.2 mg/dL
  TG: 76.2 mg/dL
  TP: 5.5 g/dL
  gamma-GTP: 1 IU/L
[3]
  TERMINAL_BW: 199.6 g
  APTT: 17.9 s
  Bas: 0%
  Eos: 1.2%
  Fbg: 239.4 mg/dL
  Hb: 13.3 g/dL
  Ht: 41%
  Lym: 74.4%
  MCH: 21.4 pg
  MCHC: 32.4%
  MCV: 66.2 fL
  Mono: 7.4%
  Neu: 17%
  PT: 12.5 s
  Plat: 112.4 x10_4/uL
  RBC: 620 x10_4/ul
  Ret: 9.2%
  WBC: 93.8 x10_2/uL
  KIDNEY_L: 1 g
  KIDNEY_R: 1 g
  KIDNEY_TOTAL: 2.1 g
  LIVER: 8.4 g
  A/G: 2
  ALP: 1325.8 IU/L
  ALT: 31 IU/L
  AST: 60.4 IU/L
  BUN: 28.4 mg/dL
  CRE: 0.3 mg/dL
  Ca: 11.2 mg/dL
  Cl: 102.6 meq/L
  DBIL: 0.016 mg/dL
  GLC: 195.6 mg/dL
  IP: 10.6 mg/dL
  K: 5.4 meq/L
  LDH: 104.4 IU/L
  Na: 135.4 meq/L
  PL: 144 mg/dL
  RALB: 3.7 g/dL
  TBIL: 0.068 mg/dL
  TC: 84 mg/dL
  TG: 50.2 mg/dL
  TP: 5.5 g/dL
  gamma-GTP: 0.8 IU/L
[4]
  TERMINAL_BW: 218.4 g
  APTT: 16.7 s
  Bas: 0%
  Eos: 1%
  Fbg: 245.4 mg/dL
  Hb: 12.6 g/dL
  Ht: 38.9%
  Lym: 77.4%
  MCH: 21.1 pg
  MCHC: 32.4%
  MCV: 65.3 fL
  Mono: 6.4%
  Neu: 15%
  PT: 12.3 s
  Plat: 123 x10_4/uL
  RBC: 596.6 x10_4/ul
  Ret: 10.6%
  WBC: 103.4 x10_2/uL
  KIDNEY_L: 1 g
  KIDNEY_R: 1 g
  KIDNEY_TOTAL: 2 g
  LIVER: 10.2 g
  A/G: 2
  ALP: 1597.6 IU/L
  ALT: 40.2 IU/L
  AST: 69.8 IU/L
  BUN: 19.8 mg/dL
  CRE: 0.4 mg/dL
  Ca: 11.1 mg/dL
  Cl: 103.6 meq/L
  DBIL: 0 mg/dL
  GLC: 197.4 mg/dL
  IP: 8.5 mg/dL
  K: 5.3 meq/L
  LDH: 156.4 IU/L
  Na: 137.2 meq/L
  PL: 157 mg/dL
  RALB: 3.6 g/dL
  TBIL: 0.022 mg/dL
  TC: 90.6 mg/dL
  TG: 93 mg/dL
  TP: 5.5 g/dL
  gamma-GTP: 1.8 IU/L
[5]
  TERMINAL_BW: 202.2 g
  APTT: 18 s
  Bas: 0%
  Eos: 1.6%
  Fbg: 237.8 mg/dL
  Hb: 12.9 g/dL
  Ht: 39.6%
  Lym: 64.8%
  MCH: 21.3 pg
  MCHC: 32.6%
  MCV: 65.5 fL
  Mono: 10.6%
  Neu: 22.8%
  PT: 12.3 s
  Plat: 117.4 x10_4/uL
  RBC: 606.2 x10_4/ul
  Ret: 9.2%
  WBC: 85.4 x10_2/uL
  KIDNEY_L: 0.9 g
  KIDNEY_R: 1 g
  KIDNEY_TOTAL: 1.9 g
  LIVER: 9.5 g
  A/G: 2
  ALP: 1436 IU/L
  ALT: 38.6 IU/L
  AST: 70.8 IU/L
  BUN: 22.6 mg/dL
  CRE: 0.4 mg/dL
  Ca: 11.7 mg/dL
  Cl: 97 meq/L
  DBIL: 0.01 mg/dL
  GLC: 217 mg/dL
  IP: 9.5 mg/dL
  K: 4.6 meq/L
  LDH: 134.8 IU/L
  Na: 130.6 meq/L
  PL: 157.4 mg/dL
  RALB: 4 g/dL
  TBIL: 0.048 mg/dL
  TC: 82.4 mg/dL
  TG: 89 mg/dL
  TP: 5.9 g/dL
  gamma-GTP: 0.8 IU/L
[6]
  TERMINAL_BW: 204.1 g
  APTT: 18.4 s
  Bas: 0%
  Eos: 1.2%
  Fbg: 247.9 mg/dL
  Hb: 13.2 g/dL
  Ht: 40%
  Lym: 65.8%
  MCH: 21.8 pg
  MCHC: 33%
  MCV: 66 fL
  Mono: 11.8%
  Neu: 21%
  PT: 12.1 s
  Plat: 120.4 x10_4/uL
  RBC: 606.4 x10_4/ul
  Ret: 10.1%
  WBC: 106 x10_2/uL
  KIDNEY_L: 1 g
  KIDNEY_R: 1 g
  KIDNEY_TOTAL: 2 g
  LIVER: 9.3 g
  A/G: 1.9
  ALP: 1390.6 IU/L
  ALT: 36 IU/L
  AST: 64 IU/L
  BUN: 31.6 mg/dL
  CRE: 0.4 mg/dL
  Ca: 11.1 mg/dL
  Cl: 96.2 meq/L
  DBIL: 0.016 mg/dL
  GLC: 211.2 mg/dL
  IP: 10.6 mg/dL
  K: 4.5 meq/L
  LDH: 122.2 IU/L
  Na: 131 meq/L
  PL: 157.4 mg/dL
  RALB: 3.9 g/dL
  TBIL: 0.084 mg/dL
  TC: 92.4 mg/dL
  TG: 49.4 mg/dL
  TP: 5.9 g/dL
  gamma-GTP: 1 IU/L
[7]
  TERMINAL_BW: 202.3 g
  APTT: 17.8 s
  Bas: 0%
  Eos: 1%
  Fbg: 249 mg/dL
  Hb: 12.8 g/dL
  Ht: 39.2%
  Lym: 74.4%
  MCH: 20.9 pg
  MCHC: 32.7%
  MCV: 63.9 fL
  Mono: 7.4%
  Neu: 17%
  PT: 12.5 s
  Plat: 124.6 x10_4/uL
  RBC: 613.2 x10_4/ul
  Ret: 8.9%
  WBC: 98.6 x10_2/uL
  KIDNEY_L: 1 g
  KIDNEY_R: 1 g
  KIDNEY_TOTAL: 2 g
  LIVER: 8.6 g
  A/G: 2.2
  ALP: 1194.8 IU/L
  ALT: 29.6 IU/L
  AST: 64.2 IU/L
  BUN: 31.8 mg/dL
  CRE: 0.3 mg/dL
  Ca: 11.1 mg/dL
  Cl: 98.6 meq/L
  DBIL: 0.018 mg/dL
  GLC: 197.4 mg/dL
  IP: 10.7 mg/dL
  K: 4.9 meq/L
  LDH: 129.4 IU/L
  Na: 132.8 meq/L
  PL: 137.6 mg/dL
  RALB: 3.8 g/dL
  TBIL: 0.08 mg/dL
  TC: 77.8 mg/dL
  TG: 40.6 mg/dL
  TP: 5.6 g/dL
  gamma-GTP: 0.4 IU/L
[8]
  TERMINAL_BW: 220.4 g
  APTT: 16.2 s
  Bas: 0%
  Eos: 1%
  Fbg: 236.7 mg/dL
  Hb: 12.6 g/dL
  Ht: 38.7%
  Lym: 66.8%
  MCH: 21.1 pg
  MCHC: 32.7%
  MCV: 64.6 fL
  Mono: 10.6%
  Neu: 21.2%
  PT: 12.4 s
  Plat: 121 x10_4/uL
  RBC: 599 x10_4/ul
  Ret: 9.6%
  WBC: 88.8 x10_2/uL
  KIDNEY_L: 1 g
  KIDNEY_R: 1 g
  KIDNEY_TOTAL: 2.1 g
  LIVER: 10.4 g
  A/G: 1.9
  ALP: 1283.2 IU/L
  ALT: 33.4 IU/L
  AST: 60 IU/L
  BUN: 20 mg/dL
  CRE: 0.3 mg/dL
  Ca: 11.1 mg/dL
  Cl: 103.6 meq/L
  DBIL: 0 mg/dL
  GLC: 195.2 mg/dL
  IP: 8.4 mg/dL
  K: 5.4 meq/L
  LDH: 128.4 IU/L
  Na: 136.4 meq/L
  PL: 150 mg/dL
  RALB: 3.5 g/dL
  TBIL: 0.014 mg/dL
  TC: 81.4 mg/dL
  TG: 110 mg/dL
  TP: 5.3 g/dL
  gamma-GTP: 1.4 IU/L
